Data from ChEMBL document CHEMBL5715952 (Oncotarget, 2015).

Legend:
[1] = Ratio of IC50 for inhibition of CAMKK in human RPMI-8226 cells assessed as reduction of cell viability to IC50 for inhibition of CAMKK in human melphalan-resistant RPMI-8226 cells assessed as reduction of cell viability; settings: time 72 hrs; condition multiple myeloma
[2] = Inhibition of CAMKK in human ANBL-6 cells assessed as reduction of cell growth incubated for 72 hrs by CellTiter 96 aqueous one solution cell proliferation assay; type: cell-based; settings: ANBL-6, 72 h
[3] = Inhibition of CAMKK in human RPMI-8226 cells assessed as reduction of cell growth incubated for 72 hrs by CellTiter 96 aqueous one solution cell proliferation assay; type: cell-based; settings: RPMI-8226, 72 h
[4] = Ratio of IC50 for inhibition of CAMKK in human RPMI-8226 cells assessed as reduction of cell viability to IC50 for inhibition of CAMKK in human RPMI-8226/BR resistant cells assessed as reduction of cell viability; settings: condition multiple myeloma
[5] = Inhibition of CAMKK in Melphalan Resistant human RPMI-8226 cells assessed as reduction of cell growth incubated for 72 hrs by CellTiter 96 aqueous one solution cell proliferation assay; type: cell-based; settings: Melphalan-resistant RPMI-8226 cell
[6] = Ratio of IC50 for inhibition of CAMKK in human ANBL6 cells assessed as reduction of cell viability to IC50 for inhibition of CAMKK in human ANBL6/BR resistant cells assessed as reduction of cell viability; settings: condition multiple myeloma
[7] = Inhibition of CAMKK in human bortezomib-resistant ANBL6 cells assessed as reduction of cell growth incubated for 72 hrs by CellTiter 96 aqueous one solution cell proliferation assay; type: cell-based
[8] = Inhibition of CAMKK in bortezomib Resistant human RPMI-8226 cells assessed as reduction of cell growth incubated for 72 hrs by CellTiter 96 aqueous one solution cell proliferation assay; type: cell-based; settings: Bortezomib-resistant RPMI-8226, 72 h
[9] = Inhibition of CAMKK in human U-266 cells assessed as reduction of cell growth incubated for 72 hrs by CellTiter 96 aqueous one solution cell proliferation assay; type: cell-based; settings: U-266, 72 h
[10] = Ratio of IC50 for inhibition of B-RAFV600E/pERK in human RPMI-8226 cells assessed as reduction of cell viability to IC50 for inhibition of B-RAFV600E/pERK in human melphalan-resistant RPMI-8226 cells assessed as reduction of cell viability; settings: time 72 hrs; condition multiple myeloma
[11] = Ratio of IC50 for inhibition of B-RAFV600E/pERK in human RPMI-8226 cells assessed as reduction of cell viability to IC50 for inhibition of B-RAFV600E/pERK in human RPMI-8226/BR resistant cells assessed as reduction of cell viability; settings: condition multiple myeloma
[12] = Ratio of IC50 for inhibition of B-RAFV600E/pERK in human ANBL6 cells assessed as reduction of cell viability to IC50 for inhibition of B-RAFV600E/pERK in human ANBL6/BR resistant cells assessed as reduction of cell viability; settings: condition multiple myeloma
[13] = Inhibition of B-RAFV600E/pERK in human ANBL-6 cells assessed as reduction of cell growth incubated for 72 hrs by CellTiter 96 aqueous one solution cell proliferation assay; type: cell-based; settings: ANBL-6, 72 h
[14] = Inhibition of B-RAFV600E/pERK in Melphalan Resistant human RPMI-8226 cells assessed as reduction of cell growth incubated for 72 hrs by CellTiter 96 aqueous one solution cell proliferation assay; type: cell-based; settings: Melphalan-resistant RPMI-8226 cell
[15] = Inhibition of B-RAF-V600E/pERK in human RPMI-8226 cells assessed as reduction of cell growth incubated for 72 hrs by CellTiter 96 aqueous one solution cell proliferation assay; type: cell-based; settings: RPMI-8226, 72 h
[16] = Inhibition of B-RAFV600E/pERK in bortezomib Resistant human RPMI-8226 cells assessed as reduction of cell growth incubated for 72 hrs by CellTiter 96 aqueous one solution cell proliferation assay; type: cell-based; settings: Bortezomib-resistant RPMI-8226, 72 h
[17] = Inhibition of B-RAFV600E/pERK in human U-266 cells assessed as reduction of cell growth incubated for 72 hrs by CellTiter 96 aqueous one solution cell proliferation assay; type: cell-based; settings: U-266, 72 h
[18] = Inhibition of B-RAFV600E/pERK in human bortezomib-resistant ANBL6 cells assessed as reduction of cell growth incubated for 72 hrs by CellTiter 96 aqueous one solution cell proliferation assay; type: cell-based
[19] = Inhibition of c-KIT/VEGFR1/B-Raf/RET/PDGFR in human bortezomib-resistant ANBL6 cells assessed as reduction of cell growth incubated for 72 hrs by CellTiter 96 aqueous one solution cell proliferation assay; type: cell-based
[20] = Ratio of IC50 for inhibition of c-KIT/VEGFR2/B-Raf/RET/PDGFR in human RPMI-8226 cells assessed as reduction of cell viability to IC50 for inhibition of c-KIT/VEGFR2/B-Raf/RET/PDGFR in human RPMI-8226/BR resistant cells assessed as reduction of cell viability; settings: condition multiple myeloma
[21] = Inhibition of c-KIT/VEGFR2/B-Raf/RET/PDGFR in human U-266 cells assessed as reduction of cell growth incubated for 72 hrs by CellTiter 96 aqueous one solution cell proliferation assay; type: cell-based; settings: U-266, 72 h
[22] = Ratio of IC50 for inhibition of c-KIT/VEGFR2/B-Raf/RET/PDGFR in human ANBL6 cells assessed as reduction of cell viability to IC50 for inhibition of c-KIT/VEGFR2/B-Raf/RET/PDGFR in human ANBL6/BR resistant cells assessed as reduction of cell viability; settings: condition multiple myeloma
[23] = Inhibition of c-KIT/VEGFR2/B-Raf/RET/PDGFR in bortezomib Resistant human RPMI-8226 cells assessed as reduction of cell growth incubated for 72 hrs by CellTiter 96 aqueous one solution cell proliferation assay; type: cell-based; settings: Bortezomib-resistant RPMI-8226, 72 h
[24] = Ratio of IC50 for inhibition of c-KIT/VEGFR1/B-Raf/RET/PDGFR in human ANBL6 cells assessed as reduction of cell viability to IC50 for inhibition of c-KIT/VEGFR1/B-Raf/RET/PDGFR in human ANBL6/BR resistant cells assessed as reduction of cell viability; settings: condition multiple myeloma
[25] = Inhibition of c-KIT/VEGFR2/B-Raf/RET/PDGFR in human bortezomib-resistant ANBL6 cells assessed as reduction of cell growth incubated for 72 hrs by CellTiter 96 aqueous one solution cell proliferation assay; type: cell-based
[26] = Inhibition of c-KIT/VEGFR2/B-Raf/RET/PDGFR in human ANBL-6 cells assessed as reduction of cell growth incubated for 72 hrs by CellTiter 96 aqueous one solution cell proliferation assay; type: cell-based; settings: ANBL-6, 72 h
[27] = Inhibition of c-KIT/VEGFR1/B-Raf/RET/PDGFR in Melphalan Resistant human RPMI-8226 cells assessed as reduction of cell growth incubated for 72 hrs by CellTiter 96 aqueous one solution cell proliferation assay; type: cell-based; settings: Melphalan-resistant RPMI-8226 cell
[28] = Inhibition of c-KIT/VEGFR1/B-Raf/RET/PDGFR in human U-266 cells assessed as reduction of cell growth incubated for 72 hrs by CellTiter 96 aqueous one solution cell proliferation assay; type: cell-based; settings: U-266, 72 h
[29] = Inhibition of c-KIT/VEGFR1/B-Raf/RET/PDGFR in human RPMI-8226 cells assessed as reduction of cell growth incubated for 72 hrs by CellTiter 96 aqueous one solution cell proliferation assay; type: cell-based; settings: RPMI-8226, 72 h
[30] = Ratio of IC50 for inhibition of c-KIT/VEGFR2/B-Raf/RET/PDGFR in human RPMI-8226 cells assessed as reduction of cell viability to IC50 for inhibition of c-KIT/VEGFR2/B-Raf/RET/PDGFR in human melphalan-resistant RPMI-8226 cells assessed as reduction of cell viability; settings: time 72 hrs; condition multiple myeloma
[31] = Inhibition of c-KIT/VEGFR2/B-Raf/RET/PDGFR in Melphalan Resistant human RPMI-8226 cells assessed as reduction of cell growth incubated for 72 hrs by CellTiter 96 aqueous one solution cell proliferation assay; type: cell-based; settings: Melphalan-resistant RPMI-8226 cell
[32] = Ratio of IC50 for inhibition of c-KIT/VEGFR1/B-Raf/RET/PDGFR in human RPMI-8226 cells assessed as reduction of cell viability to IC50 for inhibition of c-KIT/VEGFR1/B-Raf/RET/PDGFR in human melphalan-resistant RPMI-8226 cells assessed as reduction of cell viability; settings: time 72 hrs; condition multiple myeloma
[33] = Ratio of IC50 for inhibition of c-KIT/VEGFR1/B-Raf/RET/PDGFR in human RPMI-8226 cells assessed as reduction of cell viability to IC50 for inhibition of c-KIT/VEGFR1/B-Raf/RET/PDGFR in human RPMI-8226/BR resistant cells assessed as reduction of cell viability; settings: condition multiple myeloma
[34] = Inhibition of c-KIT/VEGFR1/B-Raf/RET/PDGFR in human ANBL-6 cells assessed as reduction of cell growth incubated for 72 hrs by CellTiter 96 aqueous one solution cell proliferation assay; type: cell-based; settings: ANBL-6, 72 h
[35] = Inhibition of c-KIT/VEGFR1/B-Raf/RET/PDGFR in bortezomib Resistant human RPMI-8226 cells assessed as reduction of cell growth incubated for 72 hrs by CellTiter 96 aqueous one solution cell proliferation assay; type: cell-based; settings: Bortezomib-resistant RPMI-8226, 72 h
[36] = Inhibition of c-KIT/VEGFR2/B-Raf/RET/PDGFR in human RPMI-8226 cells assessed as reduction of cell growth incubated for 72 hrs by CellTiter 96 aqueous one solution cell proliferation assay; type: cell-based; settings: RPMI-8226, 72 h

## O=C(O)c1ccc2c3c1cccc3c(=O)n1c3ccccc3nc21
[1]
  Ratio IC50: 1
[2]
  IC50: 10 µM
[3]
  IC50: 10 µM
[4]
  Ratio IC50: 1
[5]
  IC50: 10 µM
[6]
  Ratio IC50: 1
[7]
  IC50: 10 µM
[8]
  IC50: 10 µM
[9]
  IC50: 10 µM

## OCCn1cc(-c2ccc3c(c2)CC/C3=N\O)c(-c2ccncc2)n1
[10]
  Ratio IC50: 1
[11]
  Ratio IC50: 1
[12]
  Ratio IC50: 1
[13]
  IC50: 10 µM
[14]
  IC50: 10 µM
[15]
  IC50: 10 µM
[16]
  IC50: 10 µM
[17]
  IC50: 10 µM
[18]
  IC50: 10 µM

## CNC(=O)c1cc(Oc2ccc(NC(=O)Nc3ccc(Cl)c(C(F)(F)F)c3)c(F)c2)ccn1 [REGORAFENIB]
[19]
  IC50: 6.17 µM
[20]
  Ratio IC50: 2.45
[21]
  IC50: 10 µM
[22]
  Ratio IC50: 1.48
[23]
  IC50: 2.76 µM
[24]
  Ratio IC50: 1.48
[25]
  IC50: 6.17 µM
[26]
  IC50: 9.12 µM
[27]
  IC50: 3.55 µM
[28]
  IC50: 10 µM
[29]
  IC50: 4.07 µM
[30]
  Ratio IC50: 1.1
[31]
  IC50: 3.55 µM
[32]
  Ratio IC50: 1.1
[33]
  Ratio IC50: 2.45
[34]
  IC50: 9.12 µM
[35]
  IC50: 2.76 µM
[36]
  IC50: 4.07 µM
